Experimental findings from publication PMC12799421, “Inhibition of constitutive activity of the atypical chemokine receptor 3 by the small-molecule inverse agonist VUF16840” (Molecular Pharmacology, 2025) are described below.

Common to all, as to format: cell-based
Test [1] deals with T1, ACKR3 (Homo sapiens, UniProt P25106).
T1 construct: expressed in transfected cells; host or cells: HEK293T
In words: NanoBiT-complementation β-arrestin2 recruitment to hACKR3 in HEK293T cells. The settings on record: for EC50: * VUF16840 as inverse agonist, 15 minutes incubation, read-out: β-arrestin2 NanoBit pEC50 (converted). The method, then: (§1) For 1·10^6 HEK293T cells, a transfection mix consisting of 2 μg plasmid DNA, 12 μg linear PEI in a total volume of 200 μL 150 mM NaCl was made and thoroughly vortexed. The transfection mix was incubated for 15 minutes and consequently added to a cell suspension with a final concentration of 3·10^5 cells/mL. For functional studies this cell suspension was immediately transferred to a poly-L-lysine-coated white 96-well plate, with 3·10^4 cells per well. […] For BRET-based membrane localization experiments, the 2 μg plasmid DNA consisted of ACKR3-NL (0.05 μg), mVenus-CAAX (0.25 μg), and pcDEF3 vector DNA without insert (1.7 μg).
(§2) Two days after transfection (vide supra), medium was aspirated and cells were reconstituted in HBSS with 0.05% BSA. […] After treating the cell with ligand furimazine was added (310 times diluted from stock concentration). Cells were incubating at 37 °C for another 3 minutes before detection of bioluminescent intensities.
To determine the insurmountable antagonism of VUF16840, medium of transfected cells was aspirated and cells were reconstituted in HBSS with 20 mM HEPES and 0.1% BSA. Cells were incubated with VUF16840 or buffer for 60 minutes after which furimazine was added and cells were incubated for another 5 minutes, all at 37 °C.
(§3) Bioluminescence was measured using the PHERAstar-FSX and is a measure for the relative proximity of LgBiT- and SmBiT-tagged proteins and thus the occurrence of investigated protein–protein interaction.[38]
(§4) Mean pIC50 values were determined by averaging fitted values from individual experiments. Graphs depict the pooled data of all experiments. Similarly, sigmoidal, ligand-induced concentration-dependent activation or inhibition of the proximity between ACKR3 and the protein of interest was analyzed using GraphPad Prism 8, by fitting a 3-parameter concentration-response model to the data, to determine pEC50/pIC50 values. Mean pEC50 values and pIC50 values were determined by averaging fitted values from individual experiments. Graphs depict the pooled data of all experiments, for which values are normalized, per experiment, to the fold difference compared with basal signal.
(Activated receptors often draw arrestin, which recruitment assays turn into a signal.)

Test [2] has as its target T1, ACKR3. In words: BRET β-arrestin1 recruitment to ACKR3 in HEK293T cells. The settings on record: for EC50: * VUF16840 as inverse agonist, read-out: β-arrestin1 BRET pEC50 (converted); for IC50: read-out: β-arrestin1 BRET, Inhibition by VUF16840 (pIC50) (converted). As for the experimental part: For bioluminescence resonance energy transfer (BRET) experiments, several BRET acceptor constructs were used that consist of the pcDEF3 vector with either GRK2 (NCBI: NM_174710.2), β-arrestin1 (NCBI: NM_174243.3), or β-arrestin2 (NCBI: XM_005220181.4) fused at the C-terminus with a SpeI/NotI linker to mVenus (NCBI: KP666136.1), as previously described.[34]
as §1, §4
(§5) HEK293T cells were stimulated with increasing concentrations of VUF15485 or VUF16840 only (A–D), or increasing concentrations of VUF16840 in the presence of 100 nM VUF15485 (E–H). The resulting proximity between ACKR3 and β-arrestin1 (A, E), GRK2 (B, F), or Rab5a (C, G) was determined by bioluminescence resonance energy transfer. Furthermore, an interaction between clathrin A and β-arrestin2 was measured by NLuc complementation, as was determined by quantifying the relative light units (D, H). Depicted data is normalized as fold-basal and represents the mean ± SD of N experiments with triplicate measurements per experiment. N is specified in Supplemental Table 1.
(Bioluminescence resonance energy transfer reports proximity on the nanometre scale.)

Test [3] deals with T1, ACKR3. In words: NanoBiT clathrin A/β-arrestin2 interaction in ACKR3-expressing HEK293T cells. The method, then: as §1, §2, §3
as §5, with “Fig. 5 Inhibition of both constitutive as well as agonist-induced ACKR3 activity by VUF16840. HEK293T” for “HEK293T”

Structures are written as SMILES.

T1 sequence (P25106 whole entry): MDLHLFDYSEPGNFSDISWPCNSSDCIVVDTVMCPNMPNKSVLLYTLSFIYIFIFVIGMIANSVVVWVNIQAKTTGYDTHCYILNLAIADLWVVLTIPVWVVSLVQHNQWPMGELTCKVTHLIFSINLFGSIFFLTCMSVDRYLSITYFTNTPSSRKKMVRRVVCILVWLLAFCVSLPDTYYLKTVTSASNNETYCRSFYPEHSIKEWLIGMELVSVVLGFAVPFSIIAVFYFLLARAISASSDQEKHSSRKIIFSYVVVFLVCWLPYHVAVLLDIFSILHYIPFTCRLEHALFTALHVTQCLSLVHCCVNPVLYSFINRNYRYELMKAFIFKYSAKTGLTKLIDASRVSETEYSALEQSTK

Take `COc1cc(C(=O)N(CCC2CCCN2C)CC(C)=Cc2ccccc2F)cc(OC)c1OC` (stereo not shown) [VUF15485, reference compound]: the EC50 on ACKR3 [1] is 15.8 nM; on ACKR3 [2], 39.8 nM; on ACKR3 [3] (NanoBiT, read-out: EC50, clathrin A/β-arrestin2 interaction), 6 nM.
Consider `COc1ccccc1CCNC(=O)C1CN(C2CCCCC2)CCC1NC(=O)c1cc(-c2ccc(F)cc2F)on1` (stereo not shown) [VUF16840], for which, on ACKR3 [1] (60 minutes pretreatment with VUF16840), the “fashion of inhibition of CXCL12- and CXCL11-mediated β-arrestin2 recruitment (Schild analysis)” value is given as “nonsurmountable”. Further, the EC50 at ACKR3 [1] is 15.8 nM; on ACKR3 [2], 5.01 nM; at ACKR3 [3] (* VUF16840 as inverse agonist, read-out: Clathrin A/ β-arrestin2 binding pEC50 (converted)), 10 nM. Further, the IC50 was 6.3 nM on ACKR3 [1] (inverse agonist, after 30 minutes of incubation, read-out: IC50, inhibition of constitutive β-arrestin2 recruitment to hACKR3 (NanoBiT)); 20 nM on ACKR3 [1] (versus 100 nM VUF15485, read-out: β-arrestin2 NanoBit, Inhibition by VUF16840 (pIC50) (converted)); 2.51 nM at ACKR3 [2] (versus 100 nM CXCL11); 5.01 nM on ACKR3 [2] (versus 100 nM CXCL12); 2 nM at ACKR3 [2] (versus 100 nM VUF15485); 50.1 nM on ACKR3 [3] (versus 100 nM VUF15485, read-out: Clathrin A/ β-arrestin2 binding, Inhibition by VUF16840 (pIC50) (converted)).
